Measurements reported in publication PMC6254361, “The properties of Msh2–Msh6 ATP binding mutants suggest a signal amplification mechanism in DNA mismatch repair” (The Journal of Biological Chemistry, 2018).

Molecular target: T1, Msh2–Msh6 (Saccharomyces cerevisiae, UniProt P25847+Q03834, Q03834:K988R)
T1 sequence (P25847 1-964): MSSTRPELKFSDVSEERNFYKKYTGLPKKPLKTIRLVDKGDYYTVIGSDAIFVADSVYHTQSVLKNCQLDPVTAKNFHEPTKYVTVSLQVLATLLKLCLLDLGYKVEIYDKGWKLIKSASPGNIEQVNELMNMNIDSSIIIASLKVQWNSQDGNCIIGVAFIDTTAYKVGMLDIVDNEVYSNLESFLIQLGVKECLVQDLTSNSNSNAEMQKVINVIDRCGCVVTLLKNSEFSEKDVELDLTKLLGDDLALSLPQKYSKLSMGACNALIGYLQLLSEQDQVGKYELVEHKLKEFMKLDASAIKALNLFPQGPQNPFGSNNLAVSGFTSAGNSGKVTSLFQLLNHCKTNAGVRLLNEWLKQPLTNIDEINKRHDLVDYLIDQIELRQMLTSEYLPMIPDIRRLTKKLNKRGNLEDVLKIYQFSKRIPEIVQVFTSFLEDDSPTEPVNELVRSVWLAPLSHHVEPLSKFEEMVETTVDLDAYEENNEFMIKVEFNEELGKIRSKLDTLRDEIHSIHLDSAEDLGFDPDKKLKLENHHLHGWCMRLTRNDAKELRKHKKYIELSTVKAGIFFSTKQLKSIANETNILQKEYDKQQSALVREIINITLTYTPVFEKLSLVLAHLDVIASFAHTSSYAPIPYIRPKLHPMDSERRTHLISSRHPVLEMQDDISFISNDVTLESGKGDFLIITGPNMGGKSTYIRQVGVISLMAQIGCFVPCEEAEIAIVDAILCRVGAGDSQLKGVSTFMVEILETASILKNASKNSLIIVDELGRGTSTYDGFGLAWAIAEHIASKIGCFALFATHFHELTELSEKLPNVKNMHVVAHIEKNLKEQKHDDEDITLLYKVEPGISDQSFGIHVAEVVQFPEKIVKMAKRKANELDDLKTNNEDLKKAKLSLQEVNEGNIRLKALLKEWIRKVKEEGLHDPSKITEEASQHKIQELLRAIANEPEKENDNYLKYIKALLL
T1 sequence (Q03834 1-1242 K988R): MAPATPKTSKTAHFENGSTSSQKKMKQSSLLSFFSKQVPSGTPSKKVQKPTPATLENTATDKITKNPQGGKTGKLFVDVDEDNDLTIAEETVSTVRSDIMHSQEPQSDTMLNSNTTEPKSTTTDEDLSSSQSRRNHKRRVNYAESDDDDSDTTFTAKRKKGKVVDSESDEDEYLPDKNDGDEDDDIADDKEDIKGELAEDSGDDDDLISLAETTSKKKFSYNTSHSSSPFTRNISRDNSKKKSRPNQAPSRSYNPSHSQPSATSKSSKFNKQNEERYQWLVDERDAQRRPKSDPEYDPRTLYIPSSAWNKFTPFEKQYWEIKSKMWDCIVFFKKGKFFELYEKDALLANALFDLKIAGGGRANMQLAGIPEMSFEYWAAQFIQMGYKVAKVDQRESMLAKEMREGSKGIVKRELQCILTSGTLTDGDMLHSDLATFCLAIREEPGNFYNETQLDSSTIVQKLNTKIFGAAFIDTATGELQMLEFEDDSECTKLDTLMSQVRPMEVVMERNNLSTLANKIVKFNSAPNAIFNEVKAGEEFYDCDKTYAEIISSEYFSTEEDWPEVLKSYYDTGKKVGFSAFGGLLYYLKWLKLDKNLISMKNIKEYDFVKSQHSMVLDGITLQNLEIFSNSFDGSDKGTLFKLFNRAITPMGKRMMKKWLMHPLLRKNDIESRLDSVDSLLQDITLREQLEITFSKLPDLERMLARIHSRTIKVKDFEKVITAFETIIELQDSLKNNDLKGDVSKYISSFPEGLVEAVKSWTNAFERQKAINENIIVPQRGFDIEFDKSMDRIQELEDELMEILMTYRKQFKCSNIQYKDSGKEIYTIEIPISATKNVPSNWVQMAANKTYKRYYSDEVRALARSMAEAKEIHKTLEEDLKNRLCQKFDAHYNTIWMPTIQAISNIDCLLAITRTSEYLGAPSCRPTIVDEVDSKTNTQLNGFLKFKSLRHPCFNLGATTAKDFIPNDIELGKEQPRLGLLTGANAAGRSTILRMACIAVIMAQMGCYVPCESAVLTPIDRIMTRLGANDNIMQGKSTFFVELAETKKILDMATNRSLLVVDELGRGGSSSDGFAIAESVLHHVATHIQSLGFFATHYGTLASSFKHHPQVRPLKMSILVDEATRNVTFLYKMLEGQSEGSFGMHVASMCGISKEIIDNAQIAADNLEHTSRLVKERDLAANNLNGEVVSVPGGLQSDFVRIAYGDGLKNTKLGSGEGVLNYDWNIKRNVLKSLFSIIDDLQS
Experiment: UV cross-linking of [γ-32P]ATP, SDS-PAGE, phosphorimaging
Type: binding
Conditions: labelled compound; no Mg2+, EDTA, pH 8, on ice; Msh2 site at 60 μM ATP, Msh6 site at 1 μM ATP

Nc1ncnc2c1ncn2[C@@H]1O[C@H](COP(=O)(O)OP(=O)(O)OP(=O)(O)O)[C@@H](O)[C@H]1O [ATP]
relative ATP binding: Msh2–Msh6(K988A) and Msh2–Msh6(K988R) mutant complexes had partial ATP binding defects at the Msh2 subunit
